Results on 27 compounds are retold here after patent US8415351B2 (priority 2007, dated 2013).

In test [1] the test system is genotype 1a-H77 subgenomic replicon cell line. Nature of the test: microbe, parasite or virus in culture. In kind it is cell-based, HCV. To be noted: read-out: EC50 1a.
Test [2] has as its system genotype 1b-Con1 subgenomic replicon cell line. Description: microbe, parasite or virus in culture. In kind it is cell-based, HCV. To be noted: read-out: EC50 1b.

Read-outs that look alike come from different tables or passages of the source. Where only a bound is given, the exact number is not on record here.

In the case of `COc1c(/C=C/c2ccc(NS(C)(=O)=O)c(F)c2)cc(-n2ccc(=O)[nH]c2=O)cc1C(C)(C)C` [IB-L1-1.5, (E)-N-(4-(3-tert-butyl-5-(2,4-dioxo-3,4-dihydropyrimidin-1(2H)-yl)-2-methoxystyryl)-2-fluorophenyl)methanesulfonamide], the EC50 (commonly the concentration needed to bring the measured effect to its halfway point) is 10 to 100 nM in test [1] (Hepatitis C virus) and below 10 nM in test [2] (Hepatitis C virus).

Consider `COc1c(/C=C/c2ccc(N(C(C)=O)S(C)(=O)=O)cc2)cc(N2CCC(=O)NC2=O)cc1C(C)(C)C` [IA-L1-1.11, (E)-N-(4-(3-tert-butyl-5-(2,4-dioxotetrahydropyrimidin-1(2H)-yl)-2-methoxystyryl)phenyl)-N-(methylsulfonyl)acetamide], for which the EC50 in test [1] (Hepatitis C virus) and in test [2] (Hepatitis C virus) was below 10 nM each time.

Take `CCC(C)(C)c1cc(-n2ccc(=O)[nH]c2=O)cc(-c2ccc3cc(NS(C)(=O)=O)ccc3c2)c1OC` [IB-L0-2.52, N-(6-(5-(2,4-dioxo-3,4-dihydropyrimidin-1(2H)-yl)-2-methoxy-3-tert-pentylphenyl)naphthalen-2-yl)methanesulfonamide]: the EC50 is 10 to 100 nM in test [1] (Hepatitis C virus) and below 10 nM in test [2] (Hepatitis C virus).

Turning to `COc1c(-c2ccc3ccccc3c2)cc(-n2ccc(=O)[nH]c2=O)cc1C(C)(C)C` [IB-L0-2.1, 1-(3-tert-butyl-4-methoxy-5-(naphthalen-2-yl)phenyl)pyrimidine-2,4(1H,3H)-dione], the EC50 was above 1000 nM in test [1] (Hepatitis C virus) and 100 to 1000 nM in test [2] (Hepatitis C virus).

As to `COc1c(/C=C/c2ccc(NS(C)(=O)=O)cc2)cc(-n2ccc(=O)[nH]c2=O)cc1S(C)(=O)=O` [IB-L1-1.49, (E)-N-(4-(5-(2,4-dioxo-3,4-dihydropyrimidin-1(2H)-yl)-2-methoxy-3-(methylsulfonyl)styryl)phenyl)methanesulfonamide], the EC50 in test [1] (Hepatitis C virus) and in test [2] (Hepatitis C virus) was above 1000 nM throughout.

On to `COc1c(/C=C/c2ccc(NS(C)(=O)=O)cc2NC(=O)OC(C)(C)C)cc(-n2ccc(=O)[nH]c2=O)cc1C(C)(C)C` [IB-L1-1.32, (E)-tert-butyl 2-(3-tert-butyl-5-(2,4-dioxo-3,4-dihydropyrimidin-1(2H)-yl)-2-methoxystyryl)-5-(methylsulfonamido)phenylcarbamate], for which the EC50 in test [1] (Hepatitis C virus) lay within 100 to 1000 nM; in test [2] (Hepatitis C virus), 10 to 100 nM.

Take `CC(C)(C)c1cc(CCc2ccc(NS(C)(=O)=O)cc2)cc(N2CCC(=O)NC2=O)c1` [IA-L5-2-1.2, N-(4-(3-tert-butyl-5-(2,4-dioxotetrahydropyrimidin-1(2H)-yl)phenethyl)phenyl)methane sulfonamide]: the half-maximal effective concentration (EC50) in test [1] (Hepatitis C virus) and in test [2] (Hepatitis C virus) was 100 to 1000 nM throughout.

`CCOc1c(/C=C/c2ccc(NS(C)(=O)=O)cc2)cc(-n2ccc(=O)[nH]c2=O)cc1C(C)(C)C` [IB-L1-1.30, (E)-N-(4-(3-tert-butyl-5-(2,4-dioxo-3,4-dihydropyrimidin-1(2H)-yl)-2-ethoxystyryl)phenyl)methanesulfonamide]: the EC50 in test [1] (Hepatitis C virus) fell in the range of 100 to 1000 nM; in test [2] (Hepatitis C virus), 10 to 100 nM.

Take `COc1c(-c2ccc3c(C)coc3c2)cc(-n2ccc(=O)[nH]c2=O)cc1C(C)(C)C` [IB-L0-2.42, 1-(3-tert-butyl-4-methoxy-5-(3-methylbenzofuran-6-yl)phenyl)-pyrimidine-2,4(1H,3H)-dione]: the EC50 in test [1] (Hepatitis C virus) and in test [2] (Hepatitis C virus) was 100 to 1000 nM each time.

`COc1c(-c2ccsc2)cc(-n2ccc(=O)[nH]c2=O)cc1-c1ccc2cc(NS(C)(=O)=O)ccc2c1` [IB-L0-2.53, N-(6-(5-(2,4-dioxo-3,4-dihydropyrimidin-1(2H)-yl)-2-methoxy-3-(thiophen-3-yl)phenyl)naphthalen-2-yl)methanesulfonamide]: the concentration giving a half-maximal response (EC50) in test [1] (Hepatitis C virus) and in test [2] (Hepatitis C virus) was 10 to 100 nM each time.

In the case of `COc1c(-c2ccc3c(c2)/C(=N/NS(C)(=O)=O)CC3)cc(-n2ccc(=O)[nH]c2=O)cc1-c1cccs1` [IB-L0-2.51, (E)-N′-(6-(5-(2,4-dioxo-3,4-dihydropyrimidin-1(2H)-yl)-2-methoxy-3-(thiophen-2-yl)phenyl)-2,3-dihydro-1H-inden-1-ylidene)methanesulfonohydrazide], the concentration for a half-maximal effect (EC50) in test [1] (Hepatitis C virus) was 10 to 100 nM; in test [2] (Hepatitis C virus), below 10 nM.

For the compound `COc1c(/C=C/c2ccc(NS(C)(=O)=O)cc2)cc(-n2cc(Cl)c(=O)[nH]c2=O)cc1C(C)(C)C` [IB-L1-1.20, N-(4-{(E)-2-[3-tert-butyl-5-(5-chloro-2,4-dioxo-3,4-dihydro-2H-pyrimidin-1-yl)-2-methoxy-phenyl]-vinyl}-phenyl)-methanesulfonamide], the EC50 was 10 to 100 nM in test [1] (Hepatitis C virus) and below 10 nM in test [2] (Hepatitis C virus).

For the compound `COc1c(-c2ccc3cc(NS(C)(=O)=O)ccc3c2)cc(N2CCC(=O)NC2=O)cc1C(C)(C)C` [IA-L0-2.9, N-(6-(3-tert-butyl-5-(2,4-dioxotetrahydropyrimidin-1(2H)-yl)-2-methoxyphenyl)naphthalen-2-yl)methanesulfonamide], the EC50 in test [1] (Hepatitis C virus) and in test [2] (Hepatitis C virus) was below 10 nM in each case.

As for `COc1c(-c2ccc3ncsc3c2)cc(-n2ccc(=O)[nH]c2=O)cc1C(C)(C)C` [IB-L0-2.33, 1-(3-(benzo[d]thiazol-6-yl)-5-tert-butyl-4-methoxyphenyl)pyrimidine-2,4(1H,3H)-dione], the EC50 in test [1] (Hepatitis C virus) and in test [2] (Hepatitis C virus) was 100 to 1000 nM throughout.

Regarding `COc1c(-c2nc3ccc(NS(C)(=O)=O)cc3o2)cc(N2CCC(=O)NC2=O)cc1C(C)(C)C` [IA-L0-2.5, N-(2-(3-tert-butyl-5-(2,4-dioxotetrahydropyrimidin-1(2H)-yl)-2-methoxyphenyl)benzo[d]oxazol-6-yl)methanesulfonamide], the EC50 in test [1] (Hepatitis C virus) and in test [2] (Hepatitis C virus) was above 1000 nM throughout.

In the case of `COc1c(-c2ccc3nc(NS(C)(=O)=O)ccc3c2)cc(-n2ccc(=O)[nH]c2=O)cc1C(C)(C)C` [IB-L0-2.5, N-(6-(3-tert-butyl-5-(2,4-dioxo-3,4-dihydropyrimidin-1(2H)-yl)-2-methoxyphenyl)quinolin-2-yl)methanesulfonamide], the EC50 in test [1] (Hepatitis C virus) is 10 to 100 nM; in test [2] (Hepatitis C virus) it was below 10 nM.

`COc1c(/C=C(\C)c2ccc([N+](=O)[O-])cc2)cc(N2CCC(=O)NC2=O)cc1C(C)(C)C` [IA-L1-1.24, 1-{3-tert-butyl-4-methoxy-5-[(E)-2-(4-nitro-phenyl)-propenyl]-phenyl}-dihydro-pyrimidine-2,4-dione]: the EC50 in test [1] (Hepatitis C virus) and in test [2] (Hepatitis C virus) was above 1000 nM throughout.

For `COc1c(/C=C(\F)c2ccc(NS(C)(=O)=O)cc2)cc(N2CCC(=O)NC2=O)cc1C(C)(C)C` [IA-L1-1.4, (Z)—N-(4-(2-(3-tert-butyl-5-(2,4-dioxotetrahydropyrimidin-1(2H)-yl)-2-methoxyphenyl)-1-fluorovinyl)phenyl)methanesulfonamide], the EC50 in test [1] (Hepatitis C virus) and in test [2] (Hepatitis C virus) was below 10 nM in each case.

For `COC(=O)C(C)(C)c1cc(-n2ccc(=O)[nH]c2=O)cc(-c2ccc3cc(NS(C)(=O)=O)ccc3c2)c1OC` [IB-L0-2.70, methyl 2-(5-(2,4-dioxo-3,4-dihydropyrimidin-1(2H)-yl)-2-methoxy-3-(6-(methylsulfonamido)naphthalen-2-yl)phenyl)-2-methylpropanoate], the EC50 in test [1] (Hepatitis C virus) is above 1000 nM; in test [2] (Hepatitis C virus), 100 to 1000 nM.

With `COc1c(-c2ccc3cc(NS(C)(=O)=O)ccc3c2)cc(-n2ccc(=O)[nH]c2=O)cc1S(C)(=O)=O` [IB-L0-2.68, N-(6-(5-(2,4-dioxo-3,4-dihydropyrimidin-1(2H)-yl)-2-methoxy-3-(methylsulfonyl)phenyl)naphthalen-2-yl)methanesulfonamide], the EC50 in test [1] (Hepatitis C virus) is above 1000 nM; in test [2] (Hepatitis C virus), 100 to 1000 nM.

Consider `COc1c(-c2ccc3c(c2)CC[C@]3(F)CNS(C)(=O)=O)cc(-n2ccc(=O)[nH]c2=O)cc1C(C)(C)C` [IB-L0-2.10, (R)—N-((5-(3-tert-butyl-5-(2,4-dioxo-3,4-dihydropyrimidin-1(2H)-yl)-2-methoxyphenyl)-1-fluoro-2,3-dihydro-1H-inden-1-yl)methyl)methanesulfonamide], for which the EC50 in test [1] (Hepatitis C virus) and in test [2] (Hepatitis C virus) was below 10 nM in each case.

With `CC(C)(C)c1cc(NC(=O)c2ccc(NS(C)(=O)=O)cc2)cc(N2CCC(=O)NC2=O)c1` [IA-L3-1.84, N-(3-tert-butyl-5-(2,4-dioxotetrahydropyrimidin-1(2H)-yl)phenyl)-4-(methylsulfonamido) benzamide], the EC50 in test [1] (genotype 1a-H77 replicon, luciferase reporter) is above 1000 nM; in test [2] (genotype 1b-Con1 replicon, luciferase reporter), above 1000 nM.

Turning to `COc1ccc2cc(-c3cc(-n4ccc(=O)[nH]c4=O)cc(C(C)(C)C)c3OC)ccc2c1` [IB-L0-2.2, 1-(3-tert-butyl-4-methoxy-5-(6-methoxynaphthalen-2-yl)phenyl)pyrimidine-2,4(1H,3H)-dione], the EC50 in test [1] (Hepatitis C virus) and in test [2] (Hepatitis C virus) was above 1000 nM in each case.

On to `COCc1cc(NS(C)(=O)=O)ccc1/C=C/c1cc(-n2ccc(=O)[nH]c2=O)cc(C(C)(C)C)c1OC` [IB-L1-1.13, (E)-N-(4-(3-tert-butyl-5-(2,4-dioxo-3,4-dihydropyrimidin-1(2H)-yl)-2-methoxystyryl)-3-(methoxymethyl)phenyl)methanesulfonamide], for which the EC50 is 10 to 100 nM in test [1] (Hepatitis C virus) and below 10 nM in test [2] (Hepatitis C virus).

Turning to `COc1c(/C=C/c2ccc(NS(C)(=O)=O)cc2)cc(-n2cc(F)c(=O)[nH]c2=O)cc1C(C)(C)C` [IB-L1-1.2, (E)-N-(4-(3-tert-butyl-5-(5-fluoro-2,4-dioxo-3,4-dihydro-pyrimidin-1(2H)-yl)-2-methoxystyryl)phenyl)methanesulfonamide], the EC50 in test [2] (Hepatitis C virus) fell in the range of 10 to 100 nM.

`CC(C)(C)c1cc(-c2ccc3cc(NS(C)(=O)=O)ccc3c2)cc(-n2ccc(=O)[nH]c2=O)c1` [IB-L0-2.8, N-(6-(3-tert-butyl-5-(2,4-dioxo-3,4-dihydropyrimidin-1(2H)-yl)phenyl)naphthalen-2-yl)methanesulfonamide]: the EC50 in test [2] (Hepatitis C virus) lay within 10 to 100 nM.

On to `COc1c(-c2ccc3c(c2)CC/C3=N\NS(C)(=O)=O)cc(-n2ccc(=O)[nH]c2=O)cc1C(C)(C)C` [IB-L0-2.4, (E)-N′-(5-(3-tert-butyl-5-(2,4-dioxo-3,4-dihydropyrimidin-1(2H)-yl)-2-methoxyphenyl)-2,3-dihydro-1H-inden-1-ylidene)methanesulfonohydrazide], for which the EC50 in test [2] (Hepatitis C virus) was below 10 nM.
